ChEMBL document CHEMBL4699598, “Discovery of Novel Substituted N-(4-Amino-2-chlorophenyl)-5-chloro-2-hydroxybenzamide Analogues as Potent Human Adenovirus Inhibitors” (J Med Chem, 2020)
Activity calls are given as the source filed them. The calls are words filed in the database; no cut-off is given here.

Experiments:
Human betaherpesvirus 5 [1] = test: Antiviral activity against human cytomegalovirus infected in HFF cells assessed as inhibition of viral replication by measuring number of viral DNA copies at 7.8 uM incubated for 72 hrs by RT-PCR analysis (reference value: 100 +/- 25.56 %); format: functional; set-up: scale not given: the % may be the effect or the level left
Human adenovirus 5 [2] = test: Antiviral activity against wild-type Human adenovirus 5 infected in human A549 cells assessed as inhibition of virus entry incubated for 48 hrs by fluorescence assay; format: functional, organism-based; details: Human mastadenovirus C, A549, 48 h
Human adenovirus 5 [3] = test: Antiviral activity against wild-type Human adenovirus 5 infected in human A549 cells assessed as inhibition of viral DNA replication by measuring number of viral DNA copies at 7.8 uM after 24 hrs by RT-qPCR analysis (reference value: 100 +/- 0.16 %); format: functional; set-up: scale not given: the % may be the effect or the level left
[4] = Cytotoxicity against human A549 cells assessed as reduction in cell viability incubated for 48 hrs by alamarBlue assay; format: cell-based
Human adenovirus 5 [5] = test: Antiviral activity against Human adenovirus 5 infected in 293beta5 cells assessed as inhibition of plaque formation at 10 uM incubated for 7 days by GFP reporter gene assay relative to control; format: functional; details: Human mastadenovirus C, HEK293, 168 h, time 7 day
Human adenovirus 5 [6] = test: Antiviral activity against wild-type Human adenovirus 5 infected in human A549 cells assessed as inhibition of viral entry by measuring nuclear associated viral genome level at 10 fold IC50 incubated for 45 mins by RT-PCR analysis (reference value: 100 +/- 1.07 %); format: functional; set-up: scale not given: the % may be the effect or the level left; details: 0.75 h
Human adenovirus 5 [7] = test: Antiviral activity against Human adenovirus 5 infected in 293beta5 cells assessed as inhibition of virus infection at 10 fold of IC50 measured at 0 min by GFP reporter gene assay relative to control; format: functional, HEK293
Human adenovirus 5 [8] = test: Antiviral activity against WT-Human adenovirus 5 infected in A549 cells assessed as fold reduction in virus yield at 10 fold of IC50 after 48 hrs endpoint dilution method; format: functional
Human adenovirus 5 [9] = test: Antiviral activity against GFP-fused Human adenovirus 5 infected in 293beta5 cells assessed as inhibition of plaque formation incubated for 7 days by GFP reporter gene assay; format: functional, organism-based; details: Human mastadenovirus C, HEK293, 168 h
[10] = Selectivity index, ratio of CC50 for cytotoxicity against human A549 cells assessed as reduction in cell viability incubated for 48 hrs by alamarBlue assay to IC50 for antiviral activity against Human adenovirus 5 infected in 293beta5 cells assessed as inhibition of plaque formation incubated for 7 days by GFP reporter gene assay; format: toxicity, cell-based; details: read-out: Ratio CC50/IC50
Human betaherpesvirus 5 [11] = test: Antiviral activity against human cytomegalovirus infected in HFF cells assessed as inhibition of viral replication by measuring number of viral DNA copies at 12 uM incubated for 72 hrs by RT-PCR analysis (reference value: 100 +/- 25.56 %); format: functional; set-up: scale not given: the % may be the effect or the level left
Human adenovirus 5 [12] = test: Antiviral activity against wild-type Human adenovirus 5 infected in human A549 cells assessed as inhibition of viral DNA replication by measuring number of viral DNA copies at 12 uM after 24 hrs by RT-qPCR analysis (reference value: 100 +/- 0.16 %); format: functional; set-up: scale not given: the % may be the effect or the level left
Human betaherpesvirus 5 [13] = test: Antiviral activity against human cytomegalovirus infected in HFF cells assessed as inhibition of viral replication by measuring number of viral DNA copies at […] incubated for 72 hrs by RT-PCR analysis (reference value: 100 +/- 25.56 %); format: functional; set-up: scale not given: the % may be the effect or the level left; details: dose 11.1 µM
Human adenovirus 5 [14] = test: Antiviral activity against wild-type Human adenovirus 5 infected in human A549 cells assessed as inhibition of viral DNA replication by measuring number of viral DNA copies at […] after 24 hrs by RT-qPCR analysis (reference value: 100 +/- 0.16 %); format: functional; set-up: scale not given: the % may be the effect or the level left; details: dose 11.1 µM
Human adenovirus 5 [15] = test: Antiviral activity against Human adenovirus 5 infected in 293beta5 cells assessed as inhibition of virus infection at 10 fold IC50 measured after 60 mins by GFP reporter gene assay relative to control; format: functional, HEK293; details: 1 h
Human adenovirus 5 [16] = test: Antiviral activity against wild-type Human adenovirus 5 infected in human A549 cells assessed as inhibition of viral DNA replication by measuring number of viral DNA copies at 9 uM after 24 hrs by RT-qPCR analysis (reference value: 100 +/- 0.16 %); format: functional; set-up: scale not given: the % may be the effect or the level left
Human betaherpesvirus 5 [17] = test: Antiviral activity against human cytomegalovirus infected in HFF cells assessed as inhibition of viral replication by measuring number of viral DNA copies at 9 uM incubated for 72 hrs by RT-PCR analysis (reference value: 100 +/- 25.56 %); format: functional; set-up: scale not given: the % may be the effect or the level left
Human adenovirus 5 [18] = test: Antiviral activity against wild-type Human adenovirus 5 infected in human A549 cells assessed as inhibition of viral DNA replication by measuring number of viral DNA copies at 2.7 uM after 24 hrs by RT-qPCR analysis (reference value: 100 +/- 0.16 %); format: functional; set-up: scale not given: the % may be the effect or the level left
Human adenovirus 5 [19] = test: Antiviral activity against Human adenovirus 5 infected in 293beta5 cells assessed as inhibition of virus infection at 10 fold IC50 measured after 5 mins by GFP reporter gene assay relative to control; format: functional, HEK293
Human betaherpesvirus 5 [20] = test: Antiviral activity against human cytomegalovirus infected in HFF cells assessed as inhibition of viral replication by measuring number of viral DNA copies at 2.7 uM incubated for 72 hrs by RT-PCR analysis (reference value: 100 +/- 25.56 %); format: functional; set-up: scale not given: the % may be the effect or the level left
Human adenovirus 5 [21] = test: Antiviral activity against wild-type Human adenovirus 5 infected in human A549 cells assessed as inhibition of viral DNA replication by measuring number of viral DNA copies at 12.7 uM after 24 hrs by RT-qPCR analysis (reference value: 100 +/- 0.16 %); format: functional; set-up: scale not given: the % may be the effect or the level left
Human betaherpesvirus 5 [22] = test: Antiviral activity against human cytomegalovirus infected in HFF cells assessed as inhibition of viral replication by measuring number of viral DNA copies at 12.7 uM incubated for 72 hrs by RT-PCR analysis (reference value: 100 +/- 25.56 %); format: functional; set-up: scale not given: the % may be the effect or the level left
Human adenovirus 5 [23] = test: Antiviral activity against wild-type Human adenovirus 5 infected in human A549 cells assessed as inhibition of viral DNA replication by measuring number of viral DNA copies at 9.3 uM after 24 hrs by RT-qPCR analysis (reference value: 100 +/- 0.16 %); format: functional; set-up: scale not given: the % may be the effect or the level left
Human adenovirus 5 [24] = test: Antiviral activity against Human adenovirus 5 infected in 293beta5 cells assessed as inhibition of virus infection at 10 times IC50 measured after 10 to 20 mins by GFP reporter gene assay relative to control; format: functional, organism-based; details: HEK293, time min 10-20
Cytomegalovirus = test: Antiviral activity against human cytomegalovirus infected in HFF cells assessed as decrease in number of viral DNA copies at 9.3 uM incubated for 72 hrs by RT-PCR analysis (reference value: 100 +/- 25.56 %); format: functional; set-up: scale not given: the % may be the effect or the level left

IC50 (Human adenovirus 5 [2]) [µM] | IC50 (Human adenovirus 5 [9]) [nM] | SMILES | CC50 at 48 h [4] [µM] | inhibition at 10 µM (Human adenovirus 5 [5]) [%] | Activity (Human adenovirus 5 [6]) [%] | inhibition (INH) (Human adenovirus 5 [7]) [%] | fold change (FC) (Human adenovirus 5 [8]) | selectivity ratio at 48 h [10] | further results
25 | 1110 | O=C(Nc1ccc(NCc2ccc(O)cc2)cc1Cl)c1cc(Cl)ccc1O | 116 |  | 11.56 |  | 17.4 | 104 | Activity (Human betaherpesvirus 5 [13]): 15.71%; Activity (Human adenovirus 5 [14]): 83.72%; inhibition (INH) (Human adenovirus 5 [15]): >=50%
 | 900 | CC(C)(CCO)Nc1ccc(NC(=O)c2cc(Cl)ccc2O)c(Cl)c1 | 170 |  | 99.97 | <50 | 15.7 | 188 | Activity (Human adenovirus 5 [16]): 65.04%; Activity (Human betaherpesvirus 5 [17]): 14.35%
15.2 | 270 | CC1(Nc2ccc(NC(=O)c3cc(Cl)ccc3O)c(Cl)c2)CCCC1 | 157 | 100 | 53.7 |  | 52.6 | 581 | Activity (Human adenovirus 5 [18]): 20.21%; inhibition (INH) (Human adenovirus 5 [19]): <50%; Activity (Human betaherpesvirus 5 [20]): 91.25%

The next lines start with the compound.

SMILES | IC50 (Human adenovirus 5 [2]) [µM] | IC50 (Human adenovirus 5 [9]) [nM] | CC50 at 48 h [4] [µM] | inhibition at 10 µM (Human adenovirus 5 [5]) [%] | Activity (Human adenovirus 5 [6]) [%] | inhibition (INH) (Human adenovirus 5 [7]) [%] | fold change (FC) (Human adenovirus 5 [8]) | selectivity ratio at 48 h [10] | further results
O=C(Nc1ccc(NCc2ccc(O)nc2)cc1Cl)c1cc(Cl)ccc1O | > 50 | 780 | 98.5 | 100 | 13.6 | <50 | 26.6 | 126 | Activity (Human betaherpesvirus 5 [1]): 18.18%; Activity (Human adenovirus 5 [3]): 53.62%
CC(CCO)Nc1ccc(NC(=O)c2cc(Cl)ccc2O)c(Cl)c1 (stereo not given) | 30.8 | 1200 | 200 |  | 98.96 | <50 | 9.3 | 167 | Activity (Human betaherpesvirus 5 [11]): 22.47%; Activity (Human adenovirus 5 [12]): 80.94%
CC(C)(Cc1ccccc1)ON(c1ccc(NC(=O)c2cc(Cl)ccc2O)c(Cl)c1)C(C)(C)Cc1ccccc1 | 34.1 | 1270 | 165 | 100 | 95.87 |  | 21.5 | 130 | Activity (Human adenovirus 5 [21]): 2.37%; Activity (Human betaherpesvirus 5 [22]): 9.15%; inhibition (INH) (Human adenovirus 5 [19]): <50%
CC(C)(C)OC(=O)N1CCC(CNc2ccc(NC(=O)c3cc(Cl)ccc3O)c(Cl)c2)CC1 | < 3.13 | 930 | 92 |  | 59.54 |  | 232 | 102 | Activity (Human adenovirus 5 [23]): 2.49%; inhibition (Human adenovirus 5 [24]): inactive; Activity (Cytomegalovirus): 15.58%
